Source: patent publication US10167262B2, “Herbicidal substituted 3-arylpyrazoles” (FMC CORPORATION, priority 2014, dated 2019)

Tests used:
Test in all cases: Test C postemergence greenhouse test, plant response rating 0-100
Assay type in all cases: in vivo
[1] = test system: bermudagrass (Cynodon dactylon); conditions: for Plant response rating, Bermudagrass: scale 0 to 100
Method in brief: (§1)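 First, plants were raised in a sphagnum peat, vermiculite and nutrient medium to 1–4 leaves. Next, formulated test compounds were applied over the foliage. Finally, after 13–15 greenhouse days, injury was compared with controls and scored 0–100.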

[2] = test system: canarygrass (Phalaris minor); conditions: for Plant response rating, Canarygrass: scale 0 to 100
Method in brief: as §1

[3] = test system: cocklebur (common cocklebur, Xanthium strumarium); conditions: for Plant response rating, Cocklebur: scale 0 to 100
Method in brief: as §1

[4] = test system: deadnettle (henbit deadnettle, Lamium amplexicaule); conditions: for Plant response rating, Deadnettle: scale 0 to 100
Method in brief: as §1

[5] = test system: downy bromegrass (Bromus tectorum); conditions: for Plant response rating, Bromegrass, Downy: scale 0 to 100
Method in brief: as §1

[6] = test system: goosegrass (Eleusine indica); conditions: for Plant response rating, Goosegrass: scale 0 to 100
Method in brief: as §1

[7] = test system: green foxtail (Setaria viridis); conditions: for Plant response rating, Foxtail, Green: scale 0 to 100
Method in brief: as §1

[8] = test system: surinam grass (Brachiaria decumbens); conditions: for Plant response rating, Surinam Grass: scale 0 to 100
Method in brief: as §1

[9] = test system: windgrass (Apera spica-venti); conditions: for Plant response rating, Windgrass: scale 0 to 100
Method in brief: as §1

[10] = test system: winter barley (Hordeum vulgare); conditions: for Plant response rating, Barley: scale 0 to 100
Method in brief: as §1

[11] = test system: woolly cupgrass (Eriochloa villosa); conditions: for Plant response rating, Cupgrass, Woolly: scale 0 to 100
Method in brief: as §1

CC(C)n1cc(C(=O)c2ccccc2)c(-c2cc(Cl)cc(Cl)c2)n1 [Compound 44]
Plant response rating (0 to 100), Bermudagrass ([1]; 31 g ai/ha): 0
Plant response rating (0 to 100), Bermudagrass ([1]; 62 g ai/ha): 0
Plant response rating (0 to 100), Bermudagrass ([1]; 125 g ai/ha): 0
Plant response rating, Bermudagrass ([1]; 250 g ai/ha): 0
Plant response rating (0 to 100), Canarygrass ([2]; 31 g ai/ha): 0
Plant response rating (0 to 100), Canarygrass ([2]; 62 g ai/ha): 0
Plant response rating (0 to 100), Canarygrass ([2]; 125 g ai/ha): 0
Plant response rating, Canarygrass ([2]; 250 g ai/ha): 0
Plant response rating (0 to 100), Cocklebur ([3]; 31 g ai/ha): 0
Plant response rating (0 to 100), Cocklebur ([3]; 62 g ai/ha): 0
Plant response rating (0 to 100), Cocklebur ([3]; 125 g ai/ha): 10
Plant response rating, Cocklebur ([3]; 250 g ai/ha): 30
Plant response rating (0 to 100), Deadnettle ([4]; 31 g ai/ha): 0
Plant response rating (0 to 100), Deadnettle ([4]; 62 g ai/ha): 0
Plant response rating (0 to 100), Deadnettle ([4]; 125 g ai/ha): 0
Plant response rating, Deadnettle ([4]; 250 g ai/ha): 0
Plant response rating (0 to 100), Bromegrass, Downy ([5]; 31 g ai/ha): 0
Plant response rating (0 to 100), Bromegrass, Downy ([5]; 62 g ai/ha): 0
Plant response rating (0 to 100), Bromegrass, Downy ([5]; 125 g ai/ha): 0
Plant response rating, Bromegrass, Downy ([5]; 250 g ai/ha): 0
Plant response rating (0 to 100), Goosegrass ([6]; 31 g ai/ha): 0
Plant response rating (0 to 100), Goosegrass ([6]; 62 g ai/ha): 0
Plant response rating (0 to 100), Goosegrass ([6]; 125 g ai/ha): 0
Plant response rating, Goosegrass ([6]; 250 g ai/ha): 0
Plant response rating (0 to 100), Foxtail, Green ([7]; 31 g ai/ha): 0
Plant response rating (0 to 100), Foxtail, Green ([7]; 62 g ai/ha): 0
Plant response rating (0 to 100), Foxtail, Green ([7]; 125 g ai/ha): 0
Plant response rating, Foxtail, Green ([7]; 250 g ai/ha): 0
Plant response rating (0 to 100), Surinam Grass ([8]; 62 g ai/ha): 0
Plant response rating (0 to 100), Surinam Grass ([8]; 125 g ai/ha): 0
Plant response rating, Surinam Grass ([8]; 250 g ai/ha): 0
Plant response rating (0 to 100), Windgrass ([9]; 62 g ai/ha): 0
Plant response rating (0 to 100), Windgrass ([9]; 125 g ai/ha): 0
Plant response rating, Windgrass ([9]; 250 g ai/ha): 0
Plant response rating (0 to 100), Barley ([10]; 31 g ai/ha): 0
Plant response rating (0 to 100), Barley ([10]; 62 g ai/ha): 0
Plant response rating (0 to 100), Barley ([10]; 125 g ai/ha): 0
Plant response rating, Barley ([10]; 250 g ai/ha): 0
Plant response rating (0 to 100), Cupgrass, Woolly ([11]; 31 g ai/ha): 0
Plant response rating (0 to 100), Cupgrass, Woolly ([11]; 62 g ai/ha): 5
Plant response rating (0 to 100), Cupgrass, Woolly ([11]; 125 g ai/ha): 5
Plant response rating, Cupgrass, Woolly ([11]; 250 g ai/ha): 5

Fc1cccc(NN=C(c2ccccc2)c2c[nH]nc2-c2cc(Cl)cc(Cl)c2)c1 [Compound 58]
Plant response rating (0 to 100), Bermudagrass ([1]; 62 g ai/ha): 0
Plant response rating (0 to 100), Bermudagrass ([1]; 125 g ai/ha): 0
Plant response rating, Bermudagrass ([1]; 250 g ai/ha): 0
Plant response rating, Bermudagrass ([1]; 500 g ai/ha): 10
Plant response rating (0 to 100), Canarygrass ([2]; 62 g ai/ha): 0
Plant response rating (0 to 100), Canarygrass ([2]; 125 g ai/ha): 0
Plant response rating, Canarygrass ([2]; 250 g ai/ha): 0
Plant response rating, Canarygrass ([2]; 500 g ai/ha): 0
Plant response rating (0 to 100), Cocklebur ([3]; 62 g ai/ha): 60
Plant response rating (0 to 100), Cocklebur ([3]; 125 g ai/ha): 75
Plant response rating, Cocklebur ([3]; 250 g ai/ha): 80
Plant response rating, Cocklebur ([3]; 500 g ai/ha): 95
Plant response rating (0 to 100), Deadnettle ([4]; 62 g ai/ha): 0
Plant response rating (0 to 100), Deadnettle ([4]; 125 g ai/ha): 0
Plant response rating, Deadnettle ([4]; 250 g ai/ha): 0
Plant response rating, Deadnettle ([4]; 500 g ai/ha): 0
Plant response rating (0 to 100), Bromegrass, Downy ([5]; 62 g ai/ha): 0
Plant response rating (0 to 100), Bromegrass, Downy ([5]; 125 g ai/ha): 0
Plant response rating, Bromegrass, Downy ([5]; 250 g ai/ha): 0
Plant response rating, Bromegrass, Downy ([5]; 500 g ai/ha): 0
Plant response rating (0 to 100), Goosegrass ([6]; 62 g ai/ha): 0
Plant response rating (0 to 100), Goosegrass ([6]; 125 g ai/ha): 0
Plant response rating, Goosegrass ([6]; 250 g ai/ha): 0
Plant response rating, Goosegrass ([6]; 500 g ai/ha): 5
Plant response rating (0 to 100), Foxtail, Green ([7]; 62 g ai/ha): 0
Plant response rating (0 to 100), Foxtail, Green ([7]; 125 g ai/ha): 0
Plant response rating, Foxtail, Green ([7]; 250 g ai/ha): 0
Plant response rating, Foxtail, Green ([7]; 500 g ai/ha): 30
Plant response rating (0 to 100), Surinam Grass ([8]; 62 g ai/ha): 0
Plant response rating (0 to 100), Surinam Grass ([8]; 125 g ai/ha): 0
Plant response rating, Surinam Grass ([8]; 250 g ai/ha): 0
Plant response rating, Surinam Grass ([8]; 500 g ai/ha): 0
Plant response rating (0 to 100), Windgrass ([9]; 62 g ai/ha): 0
Plant response rating (0 to 100), Windgrass ([9]; 125 g ai/ha): 0
Plant response rating, Windgrass ([9]; 250 g ai/ha): 0
Plant response rating, Windgrass ([9]; 500 g ai/ha): 0
Plant response rating (0 to 100), Barley ([10]; 62 g ai/ha): 0
Plant response rating (0 to 100), Barley ([10]; 125 g ai/ha): 0
Plant response rating, Barley ([10]; 250 g ai/ha): 0
Plant response rating, Barley ([10]; 500 g ai/ha): 0
Plant response rating (0 to 100), Cupgrass, Woolly ([11]; 62 g ai/ha): 0
Plant response rating (0 to 100), Cupgrass, Woolly ([11]; 125 g ai/ha): 0
Plant response rating, Cupgrass, Woolly ([11]; 250 g ai/ha): 0
Plant response rating, Cupgrass, Woolly ([11]; 500 g ai/ha): 0

Cn1cc(C(=NN2CCCC2)c2ccccc2)c(-c2cc(Cl)c(Cl)c(Cl)c2)n1 [Compound 25]
Plant response rating (0 to 100), Bermudagrass ([1]; 31 g ai/ha): 0
Plant response rating (0 to 100), Bermudagrass ([1]; 62 g ai/ha): 0
Plant response rating, Bermudagrass ([1]; 125 g ai/ha): 0
Plant response rating, Bermudagrass ([1]; 250 g ai/ha): 0
Plant response rating (0 to 100), Canarygrass ([2]; 31 g ai/ha): 0
Plant response rating (0 to 100), Canarygrass ([2]; 62 g ai/ha): 0
Plant response rating (0 to 100), Canarygrass ([2]; 125 g ai/ha): 0
Plant response rating, Canarygrass ([2]; 250 g ai/ha): 5
Plant response rating (0 to 100), Cocklebur ([3]; 31 g ai/ha): 5
Plant response rating (0 to 100), Cocklebur ([3]; 62 g ai/ha): 15
Plant response rating (0 to 100), Cocklebur ([3]; 125 g ai/ha): 15
Plant response rating, Cocklebur ([3]; 250 g ai/ha): 25
Plant response rating (0 to 100), Deadnettle ([4]; 31 g ai/ha): 0
Plant response rating (0 to 100), Deadnettle ([4]; 62 g ai/ha): 0
Plant response rating (0 to 100), Deadnettle ([4]; 125 g ai/ha): 0
Plant response rating, Deadnettle ([4]; 250 g ai/ha): 0
Plant response rating (0 to 100), Bromegrass, Downy ([5]; 31 g ai/ha): 0
Plant response rating (0 to 100), Bromegrass, Downy ([5]; 62 g ai/ha): 0
Plant response rating, Bromegrass, Downy ([5]; 125 g ai/ha): 0
Plant response rating, Bromegrass, Downy ([5]; 250 g ai/ha): 0
Plant response rating (0 to 100), Goosegrass ([6]; 31 g ai/ha): 0
Plant response rating (0 to 100), Goosegrass ([6]; 62 g ai/ha): 0
Plant response rating (0 to 100), Goosegrass ([6]; 125 g ai/ha): 0
Plant response rating, Goosegrass ([6]; 250 g ai/ha): 0
Plant response rating (0 to 100), Foxtail, Green ([7]; 31 g ai/ha): 0
Plant response rating (0 to 100), Foxtail, Green ([7]; 62 g ai/ha): 0
Plant response rating (0 to 100), Foxtail, Green ([7]; 125 g ai/ha): 5
Plant response rating, Foxtail, Green ([7]; 250 g ai/ha): 15
Plant response rating (0 to 100), Surinam Grass ([8]; 62 g ai/ha): 0
Plant response rating (0 to 100), Surinam Grass ([8]; 125 g ai/ha): 0
Plant response rating, Surinam Grass ([8]; 250 g ai/ha): 0
Plant response rating (0 to 100), Windgrass ([9]; 62 g ai/ha): 0
Plant response rating (0 to 100), Windgrass ([9]; 125 g ai/ha): 0
Plant response rating, Windgrass ([9]; 250 g ai/ha): 25
Plant response rating (0 to 100), Barley ([10]; 31 g ai/ha): 0
Plant response rating (0 to 100), Barley ([10]; 62 g ai/ha): 0
Plant response rating, Barley ([10]; 125 g ai/ha): 5
Plant response rating, Barley ([10]; 250 g ai/ha): 10
Plant response rating (0 to 100), Cupgrass, Woolly ([11]; 31 g ai/ha): 0
Plant response rating (0 to 100), Cupgrass, Woolly ([11]; 62 g ai/ha): 0
Plant response rating (0 to 100), Cupgrass, Woolly ([11]; 125 g ai/ha): 0
Plant response rating, Cupgrass, Woolly ([11]; 250 g ai/ha): 0
